# Assay results reported in patent publication US8324253B2, “Crystalline modification of 4-(N-methyl-Z-chloro-5pyridy methylamino)-2, 5-dihydrofuran-2-on” (Bayer Cropscience AG, priority 2006, dated 2012).
# Experiments:
# Nilaparvata lugens = Nilaparvata lugens test (foliar application), outdoor trial rice, Philippines; format: in vivo
# Protocol: Action of the crystalline modification I of the compound of the formula (I) against plant-damaging insects/outdoor trial rice, Philippines
# Nilaparvata lugens Test (Foliar Application)
# To produce a suitable preparation of active compound, the oil-based suspension concentrate prepared according to Example 2.3 (OD 100 formulation) was diluted with water to the desired concentration. After the desired period of time, the kill in % was determined 100% means that all leafhoppers have been killed; 0% means that none of the leafhoppers have been killed.
# [1] = Solid-state properties of the crystalline modifications (stability, moisture uptake, grindability); format: physicochemical
thermodynamic stability of the crystalline modification [1],grindability ([1]; compared to other crystalline modifications),Structure (SMILES),"Kill rate in % after 14 days (Nilaparvata lugens; Active compound concentration 200 g/ha, foliar application of OD 100 formulation of Example 2.3 diluted with water, rice, outdoor trial, 100% = all leafhoppers killed)","activity against Nilaparvata lugens (in words) (Nilaparvata lugens; foliar application, outdoor trial rice)",tendency to absorb atmospheric moisture ([1]; compared to the crystalline modification II),conversion into another crystalline modification on storage ([1]; prolonged storage)
thermodynamically stable,easier to comminute/grind,"CN(Cc1ccc(Cl)nc1)C1=CC(=O)OC1 [crystalline modification I, 4-{[(6-chloropyrid-3-yl)methyl](methyl)amino}furan-2(5H)-one]",100%,good activity,reduced tendency to absorb atmospheric moisture,does not convert into another crystalline modification
metastable,,"CN(Cc1ccc(Cl)nc1)C1=CC(=O)OC1 [crystalline modification II, 4-{[(6-chloropyrid-3-yl)methyl](methyl)amino}furan-2(5H)-one, reference compound]",,,,
